In experiment [1] the test system is various glycosidases. As to conditions: free small-molecule compounds; cited from earlier work.
In experiment [2] the test system is HepG2 liver cancer cells. The experiment can be described thus: Hepatocellular carcinoma killing effect, cell viability assay (Cell Counting Kit-8), 96 h coculture. It is filed as cell-based, human. How it is done: HepG2 cells (5×10^4/[…]/well) were incubated for 24 hours in a 37° C. and 5% CO2 atmosphere, and compounds 7, 15, and 20 (10 μL of a solution brought to 1 μM by dissolution in MilliQ) were then respectively added per 90 μL of the medium and the final concentration was adjusted to 100 nM. At 96 hours after the start of coculture, washing was performed 3 times with the medium component and 10 μL of Cell Counting Kit-8 (Dojindo, Kumamoto, Japan) was added to the cell culture medium; incubation was carried out for 1.5 hours in a 37° C. and 5% CO2 atmosphere; and the viable cell percentage was quantitated by measurement of the absorbance at 450 nm. A 100 nM 5-fluorouracil solution (5-FU) was used as a control agent (FIG. 11).
With reference to the preceding experimental results (FIG. 11), an evaluation of the dose dependence and a determination of the IC50 value were performed for the antitumor effect of the inhibitor 7-bearing, phospholipid-coated fluorescent nanoparticles and the inhibitor 15-bearing, phospholipid-coated fluorescent nanoparticles, which had been confirmed to have a significant inhibitory activity on cancer cell growth versus the 5-FU comparative control agent. […]
Background: Tetrazolium dyes change colour on reduction, which living cells bring about.

In experiment [3] the test system is MCF-7 breast cancer cells. Nature of the experiment: Breast cancer cell killing action, viability by MTA/MTT assay (Cell Counting Kit-8). It is filed as cell-based, human. As to conditions: 100 μM cisplatin, MCF-7, 96 hours, microscopy. On the procedure: Quantitation of dead cells by the MTA assay: MCF7 cells (5×10^3/100 μL/well) were incubated for 24 hours in a 37° C. and 5% CO2 atmosphere, and QD-anchored inhibitor 7 (1 μM, 10±L/MilliQ), QD control (1 μM, 10 μL/MilliQ), compound 7 (1 μM, 10 μL/MilliQ), and cisplatin (1 mM, 10 μL/MilliQ) were then respectively added per 90 μL of the medium and the final concentration was adjusted to 100 nM (but 100 μM for the cisplatin). At 96 hours after the start of culture, washing was performed 3 times with the medium component and 10 μL of the cell culture medium was recovered. Cell Counting Kit-8 solution (Dojindo, Kumamoto, Japan) was added; incubation was carried out for 1.5 hours in a 37° C. and 5% CO2 atmosphere; and the viable cell percentage was quantitated by measurement of the absorbance at 450 nm.
Quantitation of dead cells by the MTT assay: MCF-7 cells (5×10^4/[…]/well) were incubated for 24 hours in a 37° C. and 5% CO2 atmosphere, and QD-anchored inhibitor 15 (1 μM, 10 μL/MilliQ) was then respectively added per […] of the medium and the final concentration was adjusted to 100 nM (but 100 μM for the cisplatin). […]

The subject of experiment [4] is cultured cancer cells that express the target kinase group. As to conditions: cultured cancer cells expressing the target kinase group; cited from earlier work.
For experiment [5], the system named is HepG2 cells. As to conditions: Lin, L. et al., Cancer Res. 2006; cited from earlier work.
The subject of experiment [6] is HepG2 liver cancer cells. Nature of the experiment: Hepatocellular carcinoma killing action of sorafenib derivative 32, cell viability assay, 48 h coculture. As to conditions: Homo sapiens; HepG2, 48 hours, small molecule not carried on nanoparticles. The format is cell-based. How it is done: At 48 hours after the start of coculture, washing was performed 3 times with the medium component and 10 μL of Cell Counting Kit-8 (Dojindo, Kumamoto, Japan) was added to the cell culture medium; incubation was carried out for 1.5 hours in a 37° C. and 5% CO2 atmosphere; and the cancer cell viability was quantitated by measurement of the absorbance at 450 nm (FIG. 15).

These results are taken from patent US11007276B2, “Intracellular substance transport system and use thereof” (NATIONAL UNIVERSITY CORPORATION HOKKAIDO UNIVERSITY, priority 2016, dated 2021).

A value given as a limit tells only on which side of the number the result lay.

`CC(=O)CCCC(=O)Nc1ccc(O[C@@H]2OC(CO)[C@H](O)C(O)C2O)c(C(F)F)c1` (stereo partly drawn) [compound 15]: the “native IC50 for various glycosidases in vitro” value (shortened to “native IC50”) in experiment [1] is “on the order of mM”.

Broadly, the IC50 is the concentration that gives 50% inhibition. Regarding `O=c1[nH]cc(F)c(=O)[nH]1` [5-FU, 5-fluorouracil], in experiment [2] (100 nM, HepG2, coculture for 96 hours), the antitumor activity result is “a significant antitumor activity was not observed”. Moreover, the IC50 in experiment [2] (Homo sapiens, HepG2, 96 hours of coculture, 5 to 100 nM) was above 0.1 µM.

Regarding `N.N.[Cl][Pt][Cl]` [cisplatin], the “floating dead cells with altered shapes” value in experiment [3] was “floating dead cells with altered shapes were observed”.

Turning to `CC(=O)CCCC(=O)Nc1ccc(O[C@@H]2OC(CO)[C@@H](O)C(O)C2NC(C)=O)c(C(F)F)c1` (stereo partly drawn) [compound 7], in experiment [1], the “native IC50” value was “on the order of mM”.

`CC(=O)CCCC(=O)Nc1ccc(O[C@]2(C(=O)O)CC(O)[C@@H](NC(C)=O)C([C@H](O)[C@H](O)CO)O2)c(C(F)F)c1` (stereo partly drawn) [compound 20]: in experiment [1], the “native IC50” value is recorded as “on the order of mM”.

Regarding `CNC(=O)c1cc(Oc2ccc(NC(=O)Nc3ccc(Cl)c(C(F)(F)F)c3)cc2)ccn1` [sorafenib], the IC50 in experiment [4] and in experiment [5] was 4.5 µM each time.

As for `CC(=O)CCCCNC(=O)c1cc(Oc2ccc(NC(=O)Nc3ccc(Cl)c(C(F)(F)F)c3)cc2)ccn1` [compound 32], the IC50 in experiment [6] stood at 2.1 µM.
